Literature values, collected in publication PMC6361557 (Cancer Science, 2019).

System: PSMA
Details: LNCaP cells

Row | IC50 | Molecule
2 | 24.3 nM | ^68Ga‐PSMA‐11
